{
  "source": "patent US12486255B2",
  "about": "“Modulators of RAS GTPase” (Tosk, Inc., priority 2018, dated 2025)",
  "key": {"[1]": {"tested_on": "flies expressing G12V in their wing", "experiment": "Fly assay, wing phenotype reversal", "assay_type": "in vivo, Drosophila", "text": "Each wing from mutant flies receiving treatment with either water or compound received a score from two independent scorers according to the scheme outlined in the schematic. The analysis of the scores given to the compound group was compared to the scores given for the control (water) group.\nEmbryo preparation. GAL4 virgin ♀ were collected over a period of 3-5 days, then crossed with kRAS G12V (3M) ♂ inside a plastic condo supplied with grape agar containing yeast paste. Flies were acclimated for 2 days and embryos present after a span of 4-5 hours were collected along with the agar plate and incubated for 24 hours. The next day, embryos were washed off the agar plate with Embryo Wash solution (120 mM NaCl, 0.03% Triton X) and resuspended in Embryo Inoculation solution (120 mM NaCl, 420 mM Sucrose, 0.05% Triton X-100). Embryos were counted and diluted to 15 embryos/10 μL. 150 embryos (100 μL) were dispensed into each vial.\nFood-drug admix preparation. Each fly vial contains 1.5 g of fly food in 4 ml water. The quantity of drug needed is calculated for a total of 4 vials, each vial containing 10 μM of Structure 2. This is equivalent to 0.014 mg of Structure 2/vial, for a total of 0.056 mg of Structure 2.\nA stock solution of 0.1 mg/mL Structure 2 in ethanol is prepared. A 500-ml round bottom flask is charged with 6 g of fly food (1.5 g×4), to which is added 20 mL of ethanol, ensuring that the food is entirely covered in solvent. To this heterogeneous solution is added an appropriate amount of Structure 2 stock solution, containing the calculated required quantity, in this case 0.56 mL stock solution.\nThe ethanol is evaporated under reduced pressure via a rotary evaporator equipped with a bump trap. The resulting dry food is added to three vials, each containing 1.5 g, so that the experiment is performed in triplicate. The quantity is calculated initially for 4 vials, because some food will be stuck to the walls of the round bottom flask and some is also invariably lost in the bump trap during the solvent evaporation step. Control vials lacking Structure 2 or Structure 3 are also analyzed and undergo the exact same food preparation and solvent extraction procedure.\nEmbryo addition to vials. After all the food-drug admix is prepared and added to the respective vials, to each vial is added 4 mL of water and the vial briefly vortexed. To this liquid mixture is added the embryo solution (100 μL), the vials capped and placed in an incubator or fly room.\nWing mounting and scoring. Flies hatch 10-12 days after the above experimental setup is performed. The resulting adult flies are submerged in a 3:1 70% ethanol:glycerol solution for 24 hours, then wings are dissected with curved Vannas spring scissors (FST #15001-08). The wings are mounted in an 80% glycerol solution on a microscope slide under coverslip seal.\nPictures of the wings were taken using an Accu-Scope microscope equipped with a digital camera and connected to a laptop containing the Accu-Scope Micrometric SE Premium software. The wings were scored according to the following scoring tree:\nWing score analysis. After each wing received a score from two independent scorers, the analysis of the scores given to the Structure 2 and 3 groups was compared to the scores given for the control group and was performed using the IBM SPSS software.\nWings that received a score of 3 or above are considered “reversed”, since their phenotype is closer to WT than to kRAS G12V bearing Drosophila. The findings are plotted in FIG. 9. […]"}, "[2]": {"tested_on": "SW480 cells implanted into nu/nu mice", "experiment": "Xenograft study", "assay_type": "in vivo, nude mice (nu/nu)", "conditions": "SW480 subcutaneous tumors in nu/nu mice, 2 mg/kg ip, 24 days post treatment, p<0.028 Student's t-test", "protocol": "FIG. 10 Effect of Structure 2 on growth of SW480 cells implanted into nu/nu mice. Boxplots showing tumor volumes in nude mice 24 days post treatment ip with either 2 mg/kg Structure 2 or vehicle control (DMSO). Subcutaneous tumors were induced by subcutaneous inoculation in the right flank of 3×10^6 human colon cancer cell line SW480 in Matrigel. Treatment with Structure 2 was initiated 6 days post tumor implantation. Structure 2 was administrated ip at 2 mg/kg, while control was given vehicle DMSO. All animals were sacrificed at day 30. […] In the Figure, (*) designates p<0.028 compared to vehicle control by Student's t-test.\nFemale nude mice (nu/nu) were purchased from Simonsen Laboratories (Gilroy, CA). All experiments were performed with 4 to 6-week-old female mice. Mice were housed in a barrier unit in the Tosk Animal facility, kept in filter-top cages with water and food provided ad libitum, and were checked at least twice a week for clinical signs of disease and discomfort. Subcutaneous tumors are induced by subcutaneous inoculation in the right flank of 3×10^6 human colon cancer cell line SW480 in Matrigel. The tumors are allowed to grow and volumes (mm^3) are calculated weekly from digital caliper measurements as 0.5×length×width^2. Treatment was initiated 6 days post tumor implantation. Structure 2 was administrated ip at 2 mg/kg, while control was given vehicle DMSO. […]"}, "H322": {"tested_on": "H322", "experiment": "Cytotoxicity assay, H322 cells", "assay_type": "cell-based", "conditions": "H322, human lung cancer cell line expressing wild type kRAS", "protocol": "(§1) Compounds were assayed for inhibition of cell proliferation and killing cancer cells. Cytotoxicity assays were conducted according to the following general procedure. SW480, SW48, SW900, SW620 were all maintained in Leibowitz L15 media supplemented with 10% fetal bovine serum and 1% PenStrep and grown in a 37° C. incubator without supplemental CO2. Capan-1 cells were maintained in Iscove's Modified Dulbecco's Medium (ATCC 30-2005) containing 20% fetal bovine serum and 1% PenStrep and grown in a 37° C. incubator containing 5% CO2."}, "HT29": {"tested_on": "HT29", "experiment": "Cytotoxicity assay, HT29 cells", "assay_type": "cell-based", "conditions": "human colon cancer cell line HT29", "protocol": "as §1"}, "SW900 cells": {"tested_on": "SW900 cells", "experiment": "Cytotoxicity assay, CellTiter-Glo 2.0, SW900 cells", "assay_type": "cell-based", "conditions": "SW900, human lung cancer cell expressing kRAS G12V; 48 hours", "protocol": "FIG. 4, panels A-B, illustrates the cytotoxicity of Structure 2 and Structure 3 on SW900 cells. The cytotoxicity of compounds of interest were tested against the human lung cancer cell line SW900 as described in the experimental section. SW900 cells express a G12V mutant kRAS. Compounds were incubated with cells for 48 hours and the assay was developed using Cell Titer Glo 2.0. IC50 vales were determined using GraphPad Prism 4.\nas §1\nFor dose-response assays, SW480 cells were plated into 96 well plates (1 million/plate, ˜10,000/well, 250 μL media/well). Cells were allowed to settle and adhere to plate bottom overnight Compounds were placed in 500 μL media and mixed. Then 250 μL compounds+media was placed in an intermediate plate in row A. Rows B through H were filled with 125 μL media. […] Luminescence was read with FLx800 (BioTek Instruments)."}},
  "note": "pIC50: −log10 of the molar value. Where “and” joins values, the source holds several entries; their conditions need not be identical. Equal values may be shown once. Entries after “also recorded” stand apart in the source; their conditions may differ.",
  "data": [
    {"smiles": "Cc1nc(-c2ccc(CNC(=O)c3cc(CC(C)C)nn3C)cc2)no1", "note": "[Structure 2, 3-isobutyl-1-methyl-N-(4-(5-methyl-1,2,4-oxadiazol-3-yl)benzyl)-1H-pyrazole-5-carboxamide]", "values": [
      {"measurement": "Wing score, Scored 1-6, Mean ± SD", "setting": "[1]; 10 μmolar in fly food, control 1.86 ± 0.62", "result": 2.15},
      {"measurement": "wing scores compared to the control group", "setting": "[1]; Tukey HSD and LSD p<0.001, Mann Whitney p=0.002", "result": "significantly different from the control group"},
      {"measurement": "Reversal Phenotype (%)", "setting": "[1]; wings with score of 3 or above, Structure 2 at 10 μmolar, control 8.27", "result": "24% and 24.31%"},
      {"measurement": "tumor volume versus vehicle control", "setting": "[2]", "result": "statistically significant reduction in tumor volume; also recorded: mitigates the growth of SW480 cells"},
      {"measurement": "not cytotoxic at concentrations up to", "setting": "H322", "result": "> 200", "unit": "µM"},
      {"measurement": "not cytotoxic at concentrations up to", "setting": "HT29", "result": "> 40", "unit": "µM"},
      {"measurement": "pIC50", "setting": "SW900 cells", "result": 6.45}
    ]}
  ]
}
